Measured values published in patent US20240358829A1, “Lymphocyte Population and Methods for Producing Same” (AVM Biotechnology, LLC, priority 2021, published 2024).
Where “and” joins values, the source holds several entries; their conditions need not be identical. Identical values can stand only once. Entries after “also recorded” stand apart in the source; their conditions may differ.

How the values were obtained:
[1] = test system: peripheral blood mononuclear cells or single cell splenocytes; assay: In vitro apoptosis of mononuclear cells or splenocytes incubated with AVM0703; type: cell-based, mouse; settings: concentrations equivalent to in vivo peak blood concentrations of acute high dose, out to 72 hours
[2] = test system: AVM-NKT cells (CD45 dim, CD56 very bright); assay: Flow cytometry of human subjects treated with acute high doses of dexamethasone (Example 7); type: in vivo; settings: prostate cancer patient, 6 mg/kg (fourth infusion)
[3] = AVM0703 R/R NHL clinical trial, blood counts; type: in vivo, human
[4] = test system: R/R NHL; assay: AVM0703 R/R NHL clinical trial, clinical and PET/CT response, survival; type: in vivo, human
[5] = test system: lymphocytes and myeloid cells; assay: Humanized mice experiments LYDEP 43 and 45, lymphoid versus myeloid cells (FSC vs SSC); type: in vivo, mouse
Procedure: (§1) Female huNOG-EXL mice (n=6) were obtained from Taconic Bioscience (Germantown, NY). Female huCD34-NCG mice (n=8) were obtained from Charles River (Wilmington, MA). Mice from both facilities were acclimated to laboratory conditions for at least 5-6 days.
(§2) After first (03/01/2021) and second dose 1 week later (03/08/2021), when mice reached predetermined time point, they were bled up to 70 μL of blood/mouse via cheek puncture. The blood was analyzed via flow cytometry. After third dose 28 days after the previous dose (on Apr. 5, 2021), when mice reached the study time point, they were euthanized under standard operating procedure summarized here: Mice were anesthetized with isoflurane gas.
(§3) All flow cytometry was performed in house. Blood, spleen, thymus, and bone marrow were processed via standard staining protocol for flow cytometry. MACSQUANT 16 was used for flow cytometry. Antibody panels slightly varied between first, second and third dose. Markers in the flow panel after first dose analysis included Live/Dead, hCD45, mCD45, hCD56, hTCRgd, hCD3, hCD8, hCD16, hCD19, hCD14. Markers in the flow panel after second dose included all the above, plus hTCRab and hiTCR. In the blood analysis after second dose, 7AAD, CD14 and CD19 were included together in a dump channel. […] For the third dose panel design, when full sac was performed, all markers mentioned above were assigned unique channels to avoid overlap, but TCRab was not included in the final panel due to open channel limitations.
(§4) For cheek bleeds, 70 ul of blood was collected in EDTA coated microtainer and proceeded for immunostaining. […] Blood was stained for live dead marker for 10 min at Room temperature and then for the surface antibodies mentioned above for 20 minutes at room temperature in dark. RBCs were lysed with BD FACS lysing buffer and washed with DPBS and resuspended in 300 ul DBPS. 250 ul of sample was run on MACSquant 16 flow cytometer.

[6] = test system: A20 B cell lymphoma
Procedure: FIG. 10B. […] Mice were inoculated with A20 lymphoma 2×10^6 cells in 100 μL of PBS mixed with 100 μL of chilled Matrigel into their flank. Three, 24 and 48 hours later mice were euthanized and tumors, blood, bone marrow and thymus were taken and made into single cell suspensions for flow cytometry detection of live A20 cells.

[7] = test system: hCD45+CD56+γδTCR+invTCR+ cells; assay: Humanized mice experiments LYDEP 43 and 45, flow cytometry of blood and bone marrow; type: in vivo, mouse
Procedure: as §1, §2
Spleen, Thymus, femurs, and sternum were collected for all mice. Spleen and thymus were processed into single cell suspension for analysis via flow cytometry. Bones were cleaned of muscle using gauze soaked with 70% ethanol and processed for bone marrow to analyze via flow cytometry. Pancreas and colon dissection were performed according to video and instructional JoVE files. The feces were expelled via administering ice-cold PBS with a 22-gauge gavage tube from colon. Other organs like small intestines, cecum, kidneys, lungs, and liver were also collected. All organ weights were recorded after removing excess liquid from the exterior. Soft organs were first fixed in 4% PFA and then transferred to 70% ethanol 24 hrs later and stored at 4° C. Bones were stored directly in 70% ethanol at 4° C. Blood was processed for flow cytometry analysis, and serum collection.
as §3, §4

[8] = patient 108-001, after the second 9 mg/kg infusion
[9] = mouse M88, after a first dose (32 mg/kg)
[10] = CR (Charles River) humanized mice, AVM0703 72 hrs
[11] = Tac (Taconic) humanized mice, AVM0703 72 hrs
[12] = blood, mouse 10 Taconic NOG-EXL, FIG. 24

C[C@@H]1C[C@H]2[C@@H]3CCC4=CC(=O)C=C[C@]4(C)[C@@]3(F)[C@@H](O)C[C@]2(C)[C@@]1(O)C(=O)COP(=O)(O)O [AVM0703, dexamethasone sodium phosphate]
apoptosis [1]: no apoptosis was observed | novel CD45dim CD56 very bright cell population in blood ([2]; 1 hour after infusion, 6 mg/kg): observed; also recorded: evident | novel CD45dim CD56 very bright cell population in blood ([2]; 3 hours after infusion): no longer observed | WBCs, lymphocytes, platelets and RBCs ([3]; AVM0703-001 dose-escalation phase, doses between 6 mg/kg and 18 mg/kg): not depleted | hemoglobin ([3]; R/R MCL patient, after 9 mg/kg infusion): clinically significantly increased | Absolute lymphocyte counts (lymphocytosis) ([3]; patient 103-007 (mantle cell lymphoma), 12 mg/kg infusion, between day 4 and 7, 12 mg/kg): reduced to normal lymphocyte levels; also recorded: reduced lymphocytes | monocytes, platelets, hematocrit and RBCs ([3]; patient 103-007, 12 mg/kg): spares normal blood cells; also recorded: not reduced | neutrophils ([3]; patients in the AVM0703-001 trial in R/R NHL): some evidence of increased neutrophils | Survival from 1st AVM0703 (months) ([4]; patient 101-001, B-ALL, 6 mg/kg X1): 4.8 months | Survival from 1st AVM0703 (months) ([4]; patient 103-002, PTCL, 6 mg/kg X1): 7 months | Survival from 1st AVM0703 (months) ([4]; patient 103-004, T-ALL, 6 mg/kg X1): 2.7 months | Survival from 1st AVM0703 (months) ([4]; patient 103-005, MCL, 9 mg/kg X1): 8.3 months | Survival from 1st AVM0703 (months) ([4]; patient 103-006, DLBCL, 9 mg/kg X1, ongoing): >12.6 months | Survival from 1st AVM0703 (months) ([4]; patient 103-007, MCL, 12 mg/kg X1, ongoing): >7.6 months | Survival from 1st AVM0703 (months) ([4]; patient 103-008, DLBCL, 18 mg/kg X1, ongoing): >2.1 months | clinical response ([4]; patient 108-001, 9 mg/kg, day 3 after 1st infusion): restoration of vision | Survival from 1st AVM0703 (months) ([4]; patient 108-001, CNS B-ALL, 9 mg/kg X3, ongoing): >11.8 months | CNS solid tumor [4, 8]: not evident | reduction of CSF blasts [4, 8]: 40% | response to the third infusion ([4]; patient 108-001, third 9 mg/kg infusion): loss of response | Survival from 1st AVM0703 (months) ([4]; patient 108-002, PTCL, 18 mg/kg X1, ongoing): >10.3 months | central Lugano 28 Day ([4]; patient 108-002, PTCL, 18 mg/kg, monotherapy): PR with SD | Survival from 1st AVM0703 (months) ([4]; patient 108-003, AITCL, 12 mg/kg X2, ongoing): >10.2 months | objective beneficial response (PET/CT, clinical chemistries, CBCs or clinical symptoms) ([4]; patient 108-004, 12 mg/kg): did not have any objective clinical beneficial response; also recorded: did not have an objective beneficial response; also recorded: no response to treatment | Survival from 1st AVM0703 (months) ([4]; patient 108-004, DLBCL, 12 mg/kg X1, ongoing): >8 months | % of total mouse WBCs that were lymphoid cells, range ([5]; AVM0703 treated humanized mice): 2%-20.4% | % of total mouse WBCs that were lymphoid cells, average ([5]; AVM0703 treated humanized mice (Placebo 12.7%)): 10.62% | myeloid cell production ([5]; humanized mice that largely lack myeloid compartments): induced myeloid cell production | human lymphocytes, % of total human WBCs ([5]; mouse M01, after a first dose): 67% | mouse lymphocytes, % of total WBCs ([5]; mouse M01, after a first dose): 6.7% | total lymphocytes, % of total WBCs ([5]; mouse M01, after a first dose): 35% | human lymphocytes, % of total human WBCs ([5]; mouse M03, after a first dose): 47% | mouse lymphocytes, % of total WBCs ([5]; mouse M03, after a first dose): 23.7% | total lymphocytes, % of total WBCs ([5]; mouse M03, after a first dose): 40% | human lymphocytes, % of total human WBCs ([5]; mouse M05, after a first dose): 50.1% | mouse lymphocytes, % of total WBCs ([5]; mouse M05, after a first dose): 2.0% | total lymphocytes, % of total WBCs ([5]; mouse M05, after a first dose): 20.9% | human lymphocytes, % of total human WBCs ([5]; mouse M07, after a first dose): 58.2% | mouse lymphocytes, % of total WBCs ([5]; mouse M07, after a first dose): 20.4% | total lymphocytes, % of total WBCs ([5]; mouse M07, after a first dose): 41.9% | human lymphocytes, % of total human WBCs ([5]; mouse M10, after a first dose): 37.5% | mouse lymphocytes, % of total WBCs ([5]; mouse M10, after a first dose): 5.2% | total lymphocytes, % of total WBCs ([5]; mouse M10, after a first dose): 28.1% | human lymphocytes, % of total human WBCs [5, 9]: 58% | mouse lymphocytes, % of total WBCs [5, 9]: 5.7% | total lymphocytes, % of total WBCs [5, 9]: 32% | time of maximal ablation of A20 lymphoma implanted in the flank ([6]; 18 mg/kg HED): ~3 h | Presence of AVM-NKT cells, 48 hrs blood ([6]; A20 model): negative | growth of the A20 B cell lymphoma ([6]; HED 18.1 mg/kg PO, repeat dosing, vs placebo): significantly delays growth | location of AVM-NKT cells ([6]; male tumor bearing Balb/c mice): in tumors | tumor necrosis ([6]; study A20-3, dose response curve, 18&26 mg/kg, doses on days 10, 17, 25, 32, 39): 18&26 mg/kg 50-80% necrotic | hCD45+(CD56+gdTCR+ inTCR+) [7, 10]: 4.4% and 1.8% and 2.3% and 3.5% | hCD45+(CD56+gdTCR+) [7, 10]: 4.7% and 6.3% and 1.1% and 1.6% | hCD45+(CD56+gdTCR+) ([7]; CR (Charles River) humanized mice, AVM0703 96 hrs): 1.1% and 0.4% and 4.4% and 1.4% | hCD45+(CD56+gdTCR+ inTCR+) [7, 11]: 0.7% | hCD45+(CD56+gdTCR+) [7, 11]: 10.5% and 3.4% | hCD45+(CD56+gdTCR+ inTCR+) ([7]; Tac (Taconic) humanized mice, AVM0703 96 hrs): 22.6% and 41.9% | % of hCD45+CD56+gdTCR+ cells expressing invariant TCR ([7]; blood, CRL-NCG humanized mice, >18 mg/kg HED): More than 97% | bi-specific immune cell mobilization, % of hCD45+ cells ([7]; blood, humanized mice, >18 mg/kg HED): 2-12% | % of hCD45+ dim CD56+ gdTCR+ cells positive for CD8 and for CD16 [7, 12]: More than 80% | CD56+ TCRγδ+ cells, % of hCD45+ cells [7, 12]: 12% | bi-specific immune cells, % of hCD45+ cells ([7]; blood, mouse M1, CRL-NCG, >18 mg/kg HED): 3.35% | bi-specific immune cells, % of hCD45+ cells ([7]; blood, mouse M3, CRL-NCG, >18 mg/kg HED): 4.13% | bi-specific immune cells, % of hCD45+ cells ([7]; blood, mouse M5, CRL-NCG, >18 mg/kg HED): 5.14% | bi-specific immune cells, % of hCD45+ cells ([7]; blood, mouse M7, CRL-NCG, >18 mg/kg HED): 2.37% | % of human CD45+CD56+ cells bispecific for TCRγδ and invariant TCR and CD16 positive ([7]; bone marrow, 48-60 hours after a third repeat dose of 32 mg/kg HED): More than 60% | expression and mobilization of human CD56+γδTCR+invTCR+ immune cells ([7]; both vendors, all 6 umbilical cord blood donors, 32 mg/kg DP oral): induced the expression and mobilization | % of bispecific γδTCR+invTCR+ bone marrow cells that are CD16+ ([7]; humanized mice, >18 mg/kg HED): Around 90% | bi-specific immune cells in bone marrow, % of hCD45+ cells ([7]; humanized mice, >18 mg/kg HED): 0.3-8.5%
